Experimental data: ChEMBL document CHEMBL4364344, “Design, synthesis and evaluation of activity and pharmacokinetic profile of new derivatives of xanthone and piperazine in the central nervous system” (Bioorg Med Chem Lett, 2019)

Legend:
[1] = Mutagenicity in Salmonella typhimurium TA100 at 5 ug/plate preincubated for 20 mins followed by addition of top agar and measured after 48 hrs by Ames test; assay type: toxicity; settings: salmonella enterica subsp. enterica serovar typhimurium
[2] = molecular target: Endothelin-1 receptor (Homo sapiens) (UniProt P25101); assay: Displacement of [125I]endothelin-1 from recombinant human ETA receptor at 10 uM after 120 mins by radiometric scintillation analysis relative to control
[3] = molecular target: Substance-K receptor (Homo sapiens) (UniProt P21452); assay: Displacement of [125I]NKA from recombinant human NK2 receptor at 10 uM after 60 mins by radiometric scintillation analysis relative to control
Substance-K receptor (Homo sapiens), sequence (P21452 whole entry): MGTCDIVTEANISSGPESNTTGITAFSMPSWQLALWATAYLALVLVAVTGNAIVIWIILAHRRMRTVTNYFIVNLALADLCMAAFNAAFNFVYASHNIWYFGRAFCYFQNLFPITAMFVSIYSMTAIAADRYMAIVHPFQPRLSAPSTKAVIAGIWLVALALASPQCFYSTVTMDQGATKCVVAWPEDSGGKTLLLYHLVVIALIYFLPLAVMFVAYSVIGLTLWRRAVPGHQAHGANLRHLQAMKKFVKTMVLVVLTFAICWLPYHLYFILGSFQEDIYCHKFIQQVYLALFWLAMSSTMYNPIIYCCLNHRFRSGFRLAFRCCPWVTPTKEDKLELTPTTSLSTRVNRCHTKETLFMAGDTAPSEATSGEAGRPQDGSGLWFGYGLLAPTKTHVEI

[4] = molecular target: Neuromedin-K receptor (Homo sapiens) (UniProt P29371); assay: Displacement of [3H]SR 142801 from recombinant human NK3 receptor at 10 uM after 120 mins by radiometric scintillation analysis relative to control
Neuromedin-K receptor (Homo sapiens), sequence (P29371 whole entry): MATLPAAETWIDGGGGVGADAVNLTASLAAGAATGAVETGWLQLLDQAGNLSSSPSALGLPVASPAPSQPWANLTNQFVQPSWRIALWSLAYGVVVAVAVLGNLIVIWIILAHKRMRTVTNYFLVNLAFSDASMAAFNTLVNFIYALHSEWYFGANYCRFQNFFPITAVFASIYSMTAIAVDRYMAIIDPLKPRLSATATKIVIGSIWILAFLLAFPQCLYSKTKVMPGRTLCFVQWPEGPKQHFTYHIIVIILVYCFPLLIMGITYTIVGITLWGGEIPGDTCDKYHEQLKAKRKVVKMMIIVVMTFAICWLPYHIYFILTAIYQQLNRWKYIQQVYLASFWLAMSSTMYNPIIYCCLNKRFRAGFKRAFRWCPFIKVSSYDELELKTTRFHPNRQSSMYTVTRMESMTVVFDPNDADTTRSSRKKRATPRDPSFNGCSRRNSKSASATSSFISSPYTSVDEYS

[5] = molecular target: 5-hydroxytryptamine receptor 6 (Homo sapiens) (UniProt P50406); assay: Displacement of [3H]LSD from recombinant human 5-HT6 receptor at 10 uM after 120 mins by radiometric scintillation analysis relative to control
[6] = Mutagenicity in Salmonella typhimurium TA102 at 50 ug/plate preincubated for 20 mins followed by addition of top agar and measured after 48 hrs by Ames test; assay type: toxicity; settings: salmonella enterica subsp. enterica serovar typhimurium
[7] = molecular target: 5-hydroxytryptamine receptor 2B (Homo sapiens, UniProt P41595); assay: Displacement of [125I](+/-)DOI from recombinant human 5-HT2B receptor after 60 mins by radiometric scintillation analysis
5-hydroxytryptamine receptor 2B, sequence (P41595 whole entry): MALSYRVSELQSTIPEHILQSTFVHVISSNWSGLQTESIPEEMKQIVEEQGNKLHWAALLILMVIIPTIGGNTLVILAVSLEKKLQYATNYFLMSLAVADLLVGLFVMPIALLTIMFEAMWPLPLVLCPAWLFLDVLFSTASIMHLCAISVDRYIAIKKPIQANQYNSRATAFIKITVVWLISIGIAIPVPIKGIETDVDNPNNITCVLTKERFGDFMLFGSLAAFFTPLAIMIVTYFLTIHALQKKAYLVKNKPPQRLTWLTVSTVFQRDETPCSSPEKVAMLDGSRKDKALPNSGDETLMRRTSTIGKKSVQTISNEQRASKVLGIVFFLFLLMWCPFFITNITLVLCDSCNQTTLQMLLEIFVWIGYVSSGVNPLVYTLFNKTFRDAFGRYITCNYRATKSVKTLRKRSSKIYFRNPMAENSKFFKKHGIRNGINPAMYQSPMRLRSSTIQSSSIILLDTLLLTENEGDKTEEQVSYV

[8] = molecular target: Melatonin receptor type 1A (Homo sapiens) (UniProt P48039); assay: Displacement of [125I]2-iodomelatonin from recombinant human MT1 receptor at 10 uM after 240 mins by radiometric scintillation counting analysis relative to control
[9] = molecular target: Sodium-dependent dopamine transporter (Homo sapiens) (UniProt Q01959); assay: Displacement of [3H]BTCP recombinant human dopamine transporter at 10 uM after 120 mins by radiometric scintillation analysis relative to control
[10] = Ratio of drug uptake in CD-1 mouse brain to plasma at 5 mg/kg, ip measured up to 480 mins by LC/ESI-MS/MS analysis; assay type: ADME, organism-based; settings: read-out: BPR
[11] = molecular target: Serotonin 3 (5-HT3) receptor (Homo sapiens) (UniProt P46098+A5X5Y0+O95264+Q70Z44+Q8WXA8); assay: Displacement of [3H]BRL 43694 from recombinant human 5-HT3 receptor at 10 uM after 120 mins by radiometric scintillation analysis relative to control; assay type: protein-complex assay
[12] = molecular target: Prostaglandin E2 receptor EP4 subtype (Homo sapiens) (UniProt P35408); assay: Displacement of [3H]PGE2 from recombinant human EP4 receptor at 10 uM after 120 mins by radiometric scintillation analysis relative to control
Prostaglandin E2 receptor EP4 subtype (Homo sapiens), sequence (P35408 whole entry): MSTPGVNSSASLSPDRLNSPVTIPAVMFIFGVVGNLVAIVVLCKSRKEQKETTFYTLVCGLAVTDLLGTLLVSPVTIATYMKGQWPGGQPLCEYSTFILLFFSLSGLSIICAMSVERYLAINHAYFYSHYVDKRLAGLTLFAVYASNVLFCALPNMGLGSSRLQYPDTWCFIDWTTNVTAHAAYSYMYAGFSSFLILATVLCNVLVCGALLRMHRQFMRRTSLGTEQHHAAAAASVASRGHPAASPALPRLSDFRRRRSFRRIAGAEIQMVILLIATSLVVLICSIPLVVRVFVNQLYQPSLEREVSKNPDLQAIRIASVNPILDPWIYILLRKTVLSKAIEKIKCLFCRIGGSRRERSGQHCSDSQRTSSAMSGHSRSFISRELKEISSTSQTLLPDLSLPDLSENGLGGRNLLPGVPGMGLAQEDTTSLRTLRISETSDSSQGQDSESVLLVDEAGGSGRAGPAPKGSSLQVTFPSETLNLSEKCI

[13] = molecular target: Histamine H1 receptor (Homo sapiens) (UniProt P35367); assay: Displacement of [3H]pyrilamine from recombinant human H1 histamine receptor at 10 uM after 60 mins by radiometric scintillation analysis relative to control
Histamine H1 receptor (Homo sapiens), sequence (P35367 whole entry): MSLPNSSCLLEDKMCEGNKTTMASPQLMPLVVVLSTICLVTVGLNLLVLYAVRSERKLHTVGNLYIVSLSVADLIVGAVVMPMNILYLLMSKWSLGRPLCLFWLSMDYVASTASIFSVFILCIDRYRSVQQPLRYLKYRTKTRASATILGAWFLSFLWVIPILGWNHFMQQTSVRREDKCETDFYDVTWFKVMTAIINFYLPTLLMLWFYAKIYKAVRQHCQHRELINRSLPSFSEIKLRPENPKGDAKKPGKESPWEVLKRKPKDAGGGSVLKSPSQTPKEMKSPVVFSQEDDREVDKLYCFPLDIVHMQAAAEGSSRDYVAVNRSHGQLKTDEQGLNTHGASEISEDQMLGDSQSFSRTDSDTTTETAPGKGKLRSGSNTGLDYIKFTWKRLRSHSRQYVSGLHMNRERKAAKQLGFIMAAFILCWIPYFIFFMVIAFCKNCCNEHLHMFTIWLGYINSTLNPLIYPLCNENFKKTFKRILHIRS

[14] = Cmax in CD-1 mouse brain at 5 mg/kg, ip measured up to 480 mins by LC/ESI-MS/MS analysis; assay type: ADME, organism-based; parameters: dose 5 mg/kg, route intraperitoneal
[15] = molecular target: D(1A) dopamine receptor (Homo sapiens) (UniProt P21728); assay: Displacement of [3H]SCH 23390 from recombinant human D1 dopamine receptor at 10 uM after 60 mins by radiometric scintillation analysis relative to control
[16] = Mutagenicity in Salmonella typhimurium TA98 at 50 ug/plate preincubated for 20 mins followed by addition of top agar and measured after 48 hrs by Ames test; assay type: toxicity; settings: salmonella enterica subsp. enterica serovar typhimurium
[17] = molecular target: 5-hydroxytryptamine receptor 7 (Homo sapiens) (UniProt P34969); assay: Displacement of [3H]LSD from recombinant human 5-HT7 receptor at 10 uM after 120 mins by radiometric scintillation analysis relative to control
5-hydroxytryptamine receptor 7 (Homo sapiens), sequence (P34969 whole entry): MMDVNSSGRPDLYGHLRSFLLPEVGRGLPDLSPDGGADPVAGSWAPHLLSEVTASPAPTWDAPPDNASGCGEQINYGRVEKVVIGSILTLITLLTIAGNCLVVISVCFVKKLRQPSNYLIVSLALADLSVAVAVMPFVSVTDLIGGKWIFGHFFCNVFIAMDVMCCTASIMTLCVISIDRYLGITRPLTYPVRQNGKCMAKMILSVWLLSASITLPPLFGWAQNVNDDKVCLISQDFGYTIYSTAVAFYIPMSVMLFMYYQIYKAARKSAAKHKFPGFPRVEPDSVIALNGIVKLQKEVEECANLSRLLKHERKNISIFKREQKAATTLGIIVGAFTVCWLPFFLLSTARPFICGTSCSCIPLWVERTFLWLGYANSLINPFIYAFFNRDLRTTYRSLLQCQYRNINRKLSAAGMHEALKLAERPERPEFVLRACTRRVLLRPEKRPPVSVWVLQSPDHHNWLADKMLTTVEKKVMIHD

[18] = AUC (0 to t) in CD-1 mouse plasma at 5 mg/kg, ip measured up to 480 mins by LC/ESI-MS/MS analysis; assay type: ADME, organism-based; parameters: dose 5 mg/kg, time < 8 hr, route intraperitoneal
[19] = molecular target: Sodium-dependent noradrenaline transporter (Homo sapiens) (UniProt P23975); assay: Displacement of [3H]nisoxetine recombinant human norepinephrine transporter at 10 uM after 120 mins by radiometric scintillation analysis relative to control
Sodium-dependent noradrenaline transporter (Homo sapiens), sequence (P23975 whole entry): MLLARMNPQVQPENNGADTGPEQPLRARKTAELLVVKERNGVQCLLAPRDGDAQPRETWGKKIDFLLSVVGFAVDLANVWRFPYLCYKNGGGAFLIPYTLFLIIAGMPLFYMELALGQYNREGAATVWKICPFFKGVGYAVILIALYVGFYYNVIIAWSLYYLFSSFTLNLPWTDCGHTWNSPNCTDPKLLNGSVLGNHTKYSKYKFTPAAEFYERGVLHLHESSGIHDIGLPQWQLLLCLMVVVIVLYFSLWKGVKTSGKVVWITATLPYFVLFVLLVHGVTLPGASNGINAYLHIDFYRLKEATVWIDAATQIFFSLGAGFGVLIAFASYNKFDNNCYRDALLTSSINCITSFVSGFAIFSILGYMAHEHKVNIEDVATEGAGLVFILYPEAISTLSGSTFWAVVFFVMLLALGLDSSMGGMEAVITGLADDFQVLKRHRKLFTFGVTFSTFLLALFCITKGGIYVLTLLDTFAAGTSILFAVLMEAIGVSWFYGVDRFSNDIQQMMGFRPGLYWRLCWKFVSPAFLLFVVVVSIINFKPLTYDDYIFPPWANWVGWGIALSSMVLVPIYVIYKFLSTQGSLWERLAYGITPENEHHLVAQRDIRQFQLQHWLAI

[20] = molecular target: Vasoactive intestinal polypeptide receptor 1 (Homo sapiens) (UniProt P32241); assay: Displacement of [125I]VIP recombinant human VPAC1 receptor at 10 uM after 120 mins by radiometric scintillation analysis relative to control
[21] = molecular target: Small conductance calcium-activated potassium channel (Rattus norvegicus) (UniProt P70604+P70606+P70605); assay: Displacement of [125I]apamin from rat brain SKCa at 10 uM after 60 mins by radiometric scintillation analysis relative to control
[22] = molecular target: Somatostatin receptor type 4 (Mus musculus) (UniProt P49660); assay: Displacement of [125I]Tyr11-somatostatin-14 from mouse SST4 receptor at 10 uM after 120 mins by radiometric scintillation analysis relative to control
Somatostatin receptor type 4 (Mus musculus), sequence (P49660 as listed by the source): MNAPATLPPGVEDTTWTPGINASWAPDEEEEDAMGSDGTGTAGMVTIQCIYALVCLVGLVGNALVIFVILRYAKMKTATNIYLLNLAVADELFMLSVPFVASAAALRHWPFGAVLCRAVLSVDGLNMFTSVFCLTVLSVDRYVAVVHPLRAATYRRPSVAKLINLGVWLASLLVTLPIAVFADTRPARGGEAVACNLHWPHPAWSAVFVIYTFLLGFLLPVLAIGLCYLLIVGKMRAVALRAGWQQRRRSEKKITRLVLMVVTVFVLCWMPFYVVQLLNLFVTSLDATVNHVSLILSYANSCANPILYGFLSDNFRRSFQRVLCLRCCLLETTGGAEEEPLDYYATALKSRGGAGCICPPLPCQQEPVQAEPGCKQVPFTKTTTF

[23] = molecular target: Cannabinoid receptor 1 (Homo sapiens) (UniProt P21554); assay: Displacement of [3H]CP 55940 from recombinant human CB1 receptor at 10 uM by radiometric scintillation analysis relative to control
[24] = molecular target: L-type calcium channel (verapamil binding site) (Homo sapiens, UniProt O60840+Q01668+Q13698+Q13936); assay: Displacement of [3H] Diltiazem from human L-type calcium channel verapamil binding site at 10 uM after 20 hrs by scintillation analysis relative to control; assay type: protein assay; settings: probe [3H] Diltiazem
[25] = molecular target: Beta-1 adrenergic receptor (Homo sapiens) (UniProt P08588); assay: Displacement of [3H](-)CGP 12177 from recombinant human beta1 receptor at 10 uM after 60 mins by radiometric scintillation analysis relative to control
[26] = molecular target: 5-hydroxytryptamine receptor 1B (Homo sapiens) (UniProt P28222); assay: Displacement of [3H]GR125743 from recombinant human 5-HT1B receptor at 10 uM after 60 mins by radiometric scintillation analysis relative to control
5-hydroxytryptamine receptor 1B (Homo sapiens), sequence (P28222 whole entry): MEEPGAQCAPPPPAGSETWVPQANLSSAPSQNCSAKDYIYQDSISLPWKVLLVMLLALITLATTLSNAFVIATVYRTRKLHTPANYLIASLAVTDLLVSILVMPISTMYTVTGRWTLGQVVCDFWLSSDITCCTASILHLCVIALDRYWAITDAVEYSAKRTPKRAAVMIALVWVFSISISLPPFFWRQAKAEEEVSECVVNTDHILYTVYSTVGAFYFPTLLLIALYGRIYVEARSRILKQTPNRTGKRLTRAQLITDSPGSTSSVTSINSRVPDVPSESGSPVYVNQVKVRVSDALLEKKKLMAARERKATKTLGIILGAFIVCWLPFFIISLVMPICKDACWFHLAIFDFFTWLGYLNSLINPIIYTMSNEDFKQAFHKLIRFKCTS

[27] = molecular target: Adrenergic receptor alpha-2 (Rattus norvegicus) (UniProt P22086+P19328+P22909); assay: Displacement of [3H]RX 821002 from rat brain alpha 2 receptor at 10 uM after 60 mins by radiometric scintillation analysis relative to control
[28] = molecular target: Melanocortin receptor 4 (Homo sapiens) (UniProt P32245); assay: Displacement of [125I]NDP-alpha -MSH from recombinant human MC4 receptor at 10 uM after 120 mins by radiometric scintillation counting analysis relative to control
Melanocortin receptor 4 (Homo sapiens), sequence (P32245 whole entry): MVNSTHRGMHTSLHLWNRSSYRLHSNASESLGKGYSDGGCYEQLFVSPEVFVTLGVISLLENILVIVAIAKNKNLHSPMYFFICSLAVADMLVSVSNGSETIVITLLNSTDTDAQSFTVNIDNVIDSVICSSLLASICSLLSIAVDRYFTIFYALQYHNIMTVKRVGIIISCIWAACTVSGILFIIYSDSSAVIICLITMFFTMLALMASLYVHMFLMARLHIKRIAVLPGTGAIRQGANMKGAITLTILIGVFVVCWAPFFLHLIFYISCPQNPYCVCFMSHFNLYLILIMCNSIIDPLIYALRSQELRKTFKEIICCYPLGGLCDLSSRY

[29] = molecular target: Neurotensin receptor type 1 (Homo sapiens) (UniProt P30989); assay: Displacement of [125I]Tyr3-neurotensin from human NSTR1 receptor at 10 uM after 60 mins by radiometric scintillation analysis relative to control
Neurotensin receptor type 1 (Homo sapiens), sequence (P30989 whole entry): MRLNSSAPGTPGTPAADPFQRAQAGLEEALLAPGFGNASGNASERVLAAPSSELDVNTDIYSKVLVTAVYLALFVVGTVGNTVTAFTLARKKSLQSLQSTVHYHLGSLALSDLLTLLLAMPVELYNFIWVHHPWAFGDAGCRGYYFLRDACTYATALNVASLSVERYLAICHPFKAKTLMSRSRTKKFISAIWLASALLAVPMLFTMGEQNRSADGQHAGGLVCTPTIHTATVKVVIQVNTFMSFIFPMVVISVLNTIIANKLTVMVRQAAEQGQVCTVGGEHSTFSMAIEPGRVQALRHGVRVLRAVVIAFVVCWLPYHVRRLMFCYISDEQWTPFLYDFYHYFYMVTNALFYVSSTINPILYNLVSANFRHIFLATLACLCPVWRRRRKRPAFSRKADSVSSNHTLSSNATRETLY

[30] = Mutagenicity in Salmonella typhimurium TA102 at 5 ug/plate preincubated for 20 mins followed by addition of top agar and measured after 48 hrs by Ames test; assay type: toxicity; settings: salmonella enterica subsp. enterica serovar typhimurium
[31] = Mutagenicity in Salmonella typhimurium TA100 at 50 ug/plate preincubated for 20 mins followed by addition of top agar and measured after 48 hrs by Ames test; assay type: toxicity; settings: salmonella enterica subsp. enterica serovar typhimurium

Cl.Cl.O=c1c2cc(Cl)ccc2oc2ccc(CN3CCN(CCOCCO)CC3)cc12
Activity_index [1]: 0.66
inhibition [2]: 4.9%
inhibition [3]: 49.4%
inhibition [4]: 3.2%
inhibition [5]: 2.5%
Activity_index [6]: 0.78
Ki [7]: 2900 nM
inhibition [8]: 11.1%
inhibition [9]: 28.7%
Kp at 8 h [10]: 9.79
inhibition [11]: 5.5%
inhibition [12]: 10.9%
inhibition [13]: 43.1%
Cmax [14]: 18600 ng/mL
inhibition [15]: 8.9%
Activity_index [16]: 0.76
inhibition [17]: 5.3%
AUC(0-t) at 8 h [18]: 5490 ng·h/mL
inhibition [19]: 43.1%
inhibition [20]: -1.2%
inhibition [21]: 8.5%
inhibition [22]: -2.9%
inhibition [23]: -0.1%
inhibition at 20 h, 10 µM [24]: 42.2%
inhibition [25]: 2.3%
inhibition [26]: 32.7%
inhibition [27]: 9.2%
inhibition [28]: -4%
inhibition [29]: -3.5%
Activity_index [30]: 0.93
Activity_index [31]: 0.64
